The source of these data is the NIST ThermoML archive (doi:10.1021/acs.jced.7b00078).

By mass density is commonly meant mass per unit of volume. As usually defined, the vapor or sublimation pressure is the equilibrium pressure above the liquid or solid.

For this series the following is noted: Liquid; for mass density: 303.15 K, 101.33 kPa, Vibrating tube method; for vapor or sublimation pressure: Ebulliometric method (Recirculating still).

Numbers after ± are expanded uncertainties.

Take `CSSC` [2,3-dithiabutane]: the mass density amounted to 1051.14 ± 0.14 kg/m3. Further, the “vapor or sublimation pressure” value (353.42 K) stood at 40 ± 0.13 kPa. Also, the “vapor or sublimation pressure” value (382.87 K) stood at 101.33 ± 0.14 kPa.

Regarding `CCCCO` [butan-1-ol], the mass density amounted to 801.92 ± 0.14 kg/m3. The “vapor or sublimation pressure” value (366.81 K) was determined as 40 ± 0.14 kPa. In addition, the “vapor or sublimation pressure” value (390.72 K) amounted to 101.33 ± 0.14 kPa.

Turning to `CCO` [ethanol], the mass density is 780.78 ± 0.15 kg/m3. The “vapor or sublimation pressure” value (329.63 K) was determined as 40 ± 0.15 kPa. For the same compound, the “vapor or sublimation pressure” value (351.51 K) came to 101.33 ± 0.15 kPa.

Regarding `CO` [methanol], the mass density stood at 781.81 ± 0.15 kg/m3. Also, the “vapor or sublimation pressure” value (315.8 K) is 40 ± 0.15 kPa. Besides, the “vapor or sublimation pressure” value (337.97 K) is 101.33 ± 0.15 kPa.

With `CCCO` [propan-1-ol], the mass density is given as 795.54 ± 0.15 kg/m3. Moreover, the “vapor or sublimation pressure” value (347.65 K) is 40 ± 0.15 kPa. In addition, under “370.23 K”, the “vapor or sublimation pressure” value is on record as 101.33 ± 0.15 kPa.
